The record followed here is PubChem BioAssay (NCI).

The structures appear in SMILES notation.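 These data come from cells grown in 96-well plates and exposed to compound for 48 hours at five concentrations. The concentration for full growth arrest is given as TGI.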 Some results are limits rather than exact numbers.

Among the test systems are SF-268 CNS; OVCAR-4 ovarian; OVCAR-8 ovarian; HOP-62 NSCLC; SW-620 colon; CAKI-1 renal; SNB-75 CNS; ACHN renal; UACC-257 melanoma; A498 renal; MDA-MB-231 breast; BT-549 breast; MDA-N; 786-0 renal; PC-3 prostate; COLO 205 colon; M14 melanoma; SR leukemia.
Test in all cases: NCI-60 cell line screen, 48 h

Take `COC(=O)/C=C(\S/C(=C(/c1ccc(OC)cc1)n1cc(C(=O)OC)c(C(=O)OC)n1)c1ccc(OC)cc1)C(=O)OC`: the TGI in the assay on SF-268 CNS was 78.8 µM; in the assay on OVCAR-4 ovarian, 68.3 µM; in the assay with OVCAR-8 ovarian, 4.8 µM; in the assay on HOP-62 NSCLC it was over 100 µM; in the assay with SW-620 colon, over 100 µM; in the assay with CAKI-1 renal, 6.41 µM. Besides, the TGI with SNB-75 CNS is over 100 µM; with ACHN renal it was 18.5 µM; with UACC-257 melanoma, 25.3 µM; in the assay on A498 renal, over 100 µM; in the assay on MDA-MB-231 breast, over 100 µM; with BT-549 breast it was over 100 µM. For the same compound, the TGI in the assay with MDA-N was over 100 µM; in the assay on 786-0 renal, 26.9 µM; in the assay on PC-3 prostate it was over 100 µM; with COLO 205 colon it was 8.64 µM; in the assay with M14 melanoma it was over 100 µM.
Turning to `O=Cc1ccc2c(c1)CC1(C2)Cc2ccc(C=O)cc2C1`, the TGI was 44.6 µM in the assay on SF-268 CNS; over 69.7 µM with OVCAR-4 ovarian; 31.3 µM in the assay with OVCAR-8 ovarian; 37.2 µM in the assay with HOP-62 NSCLC; 39.2 µM in the assay with SW-620 colon; over 100 µM in the assay on CAKI-1 renal. For the same compound, the TGI is over 100 µM in the assay on SNB-75 CNS; 62.1 µM in the assay with ACHN renal; 40.5 µM in the assay with UACC-257 melanoma; 69.7 µM in the assay on A498 renal; 6.77 µM in the assay on SR leukemia; 34.1 µM in the assay with MDA-MB-231 breast. In addition, the TGI came to 5.99 µM with MDA-N; 32 µM with 786-0 renal; 43.3 µM in the assay on PC-3 prostate; 70.9 µM in the assay on COLO 205 colon; 19.7 µM in the assay on M14 melanoma.
As for `Cc1ccccc1NC(=O)/C(C#N)=N\Nc1nc[nH]c1C(N)=O`, the TGI was over 100 µM in the assay with SF-268 CNS; over 100 µM with OVCAR-4 ovarian; over 100 µM in the assay with OVCAR-8 ovarian; over 100 µM with HOP-62 NSCLC; over 100 µM with SW-620 colon; 18.2 µM in the assay with CAKI-1 renal. The TGI in the assay on SNB-75 CNS, with ACHN renal, in the assay with UACC-257 melanoma, in the assay with MDA-MB-231 breast, in the assay with BT-549 breast and in the assay with MDA-N was over 100 µM in each case. The TGI with 786-0 renal, in the assay with PC-3 prostate, in the assay with COLO 205 colon and in the assay with M14 melanoma was over 100 µM throughout.
For the compound `COc1ccc(N2C(=O)/C(=C\c3cc(OC)c(OC)c(OC)c3)S(=O)(=O)C2c2ccccc2)cc1` (centres undefined), the TGI in the assay on SF-268 CNS, in the assay with OVCAR-4 ovarian, in the assay on OVCAR-8 ovarian, in the assay on HOP-62 NSCLC, in the assay on SW-620 colon and in the assay on CAKI-1 renal was over 100 µM each time. The TGI in the assay on ACHN renal, in the assay with UACC-257 melanoma, with A498 renal, in the assay with SR leukemia, in the assay with MDA-MB-231 breast and in the assay on BT-549 breast was over 100 µM in each case. The TGI was 40.8 µM in the assay on MDA-N, over 100 µM with 786-0 renal, 41.6 µM with COLO 205 colon and 84.2 µM with M14 melanoma.
With `COc1ccccc1N1C(=O)/C(=C\c2cc(OC)c(OC)c(OC)c2)S(=O)(=O)C1c1ccccc1` (centres undefined), the TGI with SF-268 CNS, with OVCAR-4 ovarian, in the assay with OVCAR-8 ovarian, in the assay on HOP-62 NSCLC, in the assay with SW-620 colon and with CAKI-1 renal was over 100 µM in each case. For the same compound, the TGI in the assay on ACHN renal, with UACC-257 melanoma, in the assay on A498 renal, in the assay on SR leukemia, with MDA-MB-231 breast and in the assay with BT-549 breast was over 100 µM each time. For the same compound, the TGI with MDA-N was 48.3 µM; with 786-0 renal, over 100 µM; in the assay with COLO 205 colon it was over 100 µM; with M14 melanoma, over 100 µM.
Take `CCOC(=O)/C(=C\NC(C)(C)C)c1nc2ccccc2o1`: the TGI in the assay on SF-268 CNS, in the assay on OVCAR-4 ovarian, in the assay with OVCAR-8 ovarian, in the assay on HOP-62 NSCLC, in the assay with SW-620 colon and with CAKI-1 renal was over 100 µM in each case. The TGI is over 100 µM with SNB-75 CNS; 68.5 µM in the assay with ACHN renal; 51.1 µM in the assay with UACC-257 melanoma; over 100 µM in the assay with A498 renal; 48.6 µM in the assay with SR leukemia; over 100 µM in the assay on BT-549 breast. Moreover, the TGI in the assay on MDA-N was over 100 µM; in the assay with 786-0 renal, 70.7 µM; in the assay on COLO 205 colon it was 55.3 µM; in the assay with M14 melanoma it was over 100 µM.
With `CN1CCN(C(=S)N(C)C(=O)c2cccs2)CC1`, the TGI in the assay on OVCAR-4 ovarian, in the assay on OVCAR-8 ovarian, in the assay on SW-620 colon, with ACHN renal, in the assay with UACC-257 melanoma and with SR leukemia was over 100 µM in each case. The TGI in the assay on MDA-MB-231 breast, in the assay on BT-549 breast, in the assay with MDA-N, in the assay with 786-0 renal, in the assay with COLO 205 colon and with M14 melanoma was over 100 µM each time.
Take `C[C@@H]1OC2(O)[C@@H]3CCCN3C(=O)N(Cc3ccccc3)N2C1=O` (some centres undefined): the TGI in the assay with SF-268 CNS, with OVCAR-4 ovarian, in the assay with OVCAR-8 ovarian, with HOP-62 NSCLC, in the assay on SW-620 colon and in the assay on CAKI-1 renal was over 100 µM throughout. Moreover, the TGI is 88.7 µM in the assay with SNB-75 CNS; over 100 µM with ACHN renal; over 100 µM in the assay on UACC-257 melanoma; over 100 µM in the assay on A498 renal; over 100 µM with SR leukemia; over 100 µM in the assay on MDA-MB-231 breast. Also, the TGI in the assay on MDA-N, in the assay with 786-0 renal, with PC-3 prostate, with COLO 205 colon and in the assay with M14 melanoma was over 100 µM each time.
As for `O=C(CCCN1CC=C(n2c(=O)[nH]c3ccccc32)CC1)c1cccs1`, the TGI in the assay on SF-268 CNS, with OVCAR-4 ovarian, in the assay with OVCAR-8 ovarian, in the assay on HOP-62 NSCLC, in the assay on SW-620 colon and with CAKI-1 renal was over 100 µM each time. In addition, the TGI with SNB-75 CNS, in the assay with ACHN renal, with UACC-257 melanoma, in the assay with A498 renal, in the assay with SR leukemia and in the assay on MDA-MB-231 breast was over 100 µM each time. Besides, the TGI in the assay with MDA-N, in the assay on 786-0 renal, in the assay on PC-3 prostate, in the assay on COLO 205 colon and with M14 melanoma was over 100 µM throughout.
Take `C/C(=C/CNc1ncnc2c1ncn2CCC#N)CO`: the TGI with SF-268 CNS, in the assay on OVCAR-4 ovarian, in the assay with OVCAR-8 ovarian, in the assay on HOP-62 NSCLC, in the assay with SW-620 colon and with CAKI-1 renal was over 100 µM throughout. The TGI with SNB-75 CNS, with ACHN renal, with UACC-257 melanoma, in the assay on A498 renal, with SR leukemia and in the assay on MDA-MB-231 breast was over 100 µM throughout. Further, the TGI with MDA-N, in the assay on 786-0 renal, in the assay with PC-3 prostate, in the assay with COLO 205 colon and in the assay on M14 melanoma was over 100 µM each time.
Consider `CN(C)CCN1C(=O)c2ccccc2C1(O)c1ccc(Cl)cc1` (centres undefined), for which the TGI with SF-268 CNS, in the assay on OVCAR-4 ovarian, in the assay on OVCAR-8 ovarian, in the assay with HOP-62 NSCLC, in the assay with SW-620 colon and with CAKI-1 renal was over 100 µM throughout. Also, the TGI was over 100 µM with SNB-75 CNS; over 100 µM in the assay on ACHN renal; 63.9 µM with UACC-257 melanoma; over 100 µM in the assay with MDA-MB-231 breast; over 100 µM in the assay with BT-549 breast; over 100 µM in the assay on MDA-N. For the same compound, the TGI in the assay with 786-0 renal, in the assay with PC-3 prostate, in the assay with COLO 205 colon and in the assay with M14 melanoma was over 100 µM each time.
Regarding `CC1=CCC[C@]2(C)C1=CC(=O)O[C@H]2c1ccoc1`, the TGI in the assay on SF-268 CNS, in the assay on OVCAR-4 ovarian, in the assay on OVCAR-8 ovarian, in the assay with HOP-62 NSCLC, in the assay with SW-620 colon and in the assay on CAKI-1 renal was over 100 µM each time. The TGI in the assay on SNB-75 CNS, in the assay with ACHN renal, with UACC-257 melanoma, in the assay on A498 renal, in the assay with SR leukemia and in the assay on MDA-MB-231 breast was over 100 µM each time. For the same compound, the TGI in the assay with MDA-N, with 786-0 renal, with PC-3 prostate and with COLO 205 colon was over 100 µM throughout.
Take `COc1ccc(C(CC(=O)c2ccccc2)C(=O)c2ccc3c(c2)OCO3)cc1` (centres undefined): the TGI in the assay with SF-268 CNS, with OVCAR-8 ovarian, with HOP-62 NSCLC, in the assay on SW-620 colon, in the assay with CAKI-1 renal and in the assay with SNB-75 CNS was over 100 µM in each case. In addition, the TGI in the assay with ACHN renal, with UACC-257 melanoma, in the assay with A498 renal, in the assay on SR leukemia, in the assay with MDA-MB-231 breast and in the assay with MDA-N was over 100 µM in each case. For the same compound, the TGI in the assay with 786-0 renal, in the assay with PC-3 prostate, with COLO 205 colon and in the assay on M14 melanoma was over 100 µM each time.
